Laboratory results published in US6534676B2, “Method to treat chronic heart failure and/or elevated cholesterol levels using 3,5-diiodothyropropionic acid and method to prepare same” (The Arizona Board of Regents on Behalf of the University of …, priority 2001, dated 2003).

How the values were obtained:
[1] = Dose-ranging study of DITPA in normal volunteers: clinical variables and tolerability; type: in vivo, human; conditions: for Weight: normal volunteers n=7, oral, baseline 84.2 ± 2.6; for Weight / Heart Rate / Diastolic Blood Pressure / Systolic Blood Pressure: mean ± SE; for Heart Rate: baseline 55.4 ± 2.9; for Diastolic Blood Pressure: baseline 77.1 ± 3.5; for Systolic Blood Pressure: baseline 121.3 ± 4.4
Method: In clinical trials discussed below wherein DITPA was orally administered to volunteers and patients, the DITPA was mixed under the supervision of a registered pharmacist with lactose and packed into gelatin capsules containing 50 mg of the active ingredient. Identical capsules were packed with lactose to serve as placebo medication.
A dose-ranging study was performed with seven (7) normal volunteers. Study participants comprised men between the ages of 18 and 65 years of age. Before participating in the study, a complete physical examination, electrocardiogram, and echocardiogram were obtained. A complete blood count (CBC), blood chemistries (including liver enzymes and lipids profile), and thyroid function studies (total T3, total T4, free T4, rT3, and thyrotropin) were measured.
On day 1, these normal volunteers were started on 1.875 mg/kg in two divided doses per day. This treatment regimen was continued for two weeks. At the end of the second week, the initial laboratory studies were repeated. The dose was then doubled to 3.75 mg/kg and the volunteers were treated for two additional weeks. At the end of this time physical examination and all laboratory variables again were measured.
Volunteer data were analyzed using Student's paired t-test. Baseline data in DITPA and placebo groups were compared by Student's unpaired t-test. Comparison of placebo and drug treated groups was made by repeated measures ANOVA (SPSS Version 9.5, SPSS Chicago, 11). If P values for drug-time interactions were significant a priori contrasts were performed of the drug-time interaction for two weeks versus baseline. When data were available only at baseline and four week, comparisons were made by difference scores. Baseline values for each participant were subtracted from values after four weeks of treatment and the differences between DITPA and placebo treatments then were compared. P values by two-tailed testing less than 0.05 were considered to be significant.
As noted above, seven normal volunteers received DITPA at two dosage levels for two and four weeks.

[2] = Dose-ranging study of DITPA in normal volunteers: thyroid hormone measurements; type: in vivo, human; conditions: for Thyrotropin: baseline 3.53 ± 1.00; for Thyrotropin / Free T4 / Total T4 / rT3: mean ± SEM; for Free T4: baseline 1.04 ± .04; for Total T4: baseline 8.73 ± .85; for rT3: baseline 23.23 ± 1.71
Method: A dose-ranging study was performed with seven (7) normal volunteers. Study participants comprised men between the ages of 18 and 65 years of age. Before participating in the study, a complete physical examination, electrocardiogram, and echocardiogram were obtained. […] On day 1, these normal volunteers were started on 1.875 mg/kg in two divided doses per day. This treatment regimen was continued for two weeks. At the end of the second week, the initial laboratory studies were repeated. The dose was then doubled to 3.75 mg/kg and the volunteers were treated for two additional weeks. At the end of this time physical examination and all laboratory variables again were measured. Volunteer data were analyzed using Student's paired t-test. Baseline data in DITPA and placebo groups were compared by Student's unpaired t-test. Comparison of placebo and drug treated groups was made by repeated measures ANOVA (SPSS Version 9.5, SPSS Chicago, 11). If P values for drug-time interactions were significant a priori contrasts were performed of the drug-time interaction for two weeks versus baseline. When data were available only at baseline and four week, comparisons were made by difference scores. Baseline values for each participant were subtracted from values after four weeks of treatment and the differences between DITPA and placebo treatments then were compared. […] Table II summarizes thyroid hormone measurements after two and four weeks of treatment with DITPA in normal volunteers.

[3] = Heart failure patients: right heart catheterization hemodynamics; type: in vivo, human
Method: (§1) All patients were hospitalized before initiating treatment and a right heart catheterization, radionuclide ejection fraction and echocardiogram were performed. Serum samples were drawn for measurement of thyrotropin, total T4, free T4, and reverse T3.
(§2) DITPA cross-reacted with antibodies for detection of T3, which consequently was not measured. Renal and hepatic function tests also were performed. Patients were randomly assigned in double-blind fashion to receive either DITPA at a dosage of 1.875 mg/kg daily or placebo in two or three divided doses. For the first four days of drug administration patients were monitored on a telemetry unit. Thereafter, weekly electrocardiograms were performed and patients were examined for changes in thyroid or cardiac status or evidence of drug toxicity.
(§3) At the end of two weeks an echocardiogram was obtained. If there was no clinical evidence of progression of heart failure or development of an arrhythmia the dose of DITPA was increased to 3.75 mg/kg daily. After an additional two weeks of treatment with the higher dosage of the drug patients were readmitted to the hospital and the tests performed in the initial evaluation were repeated.
(§4) Right heart catheterization was performed after the patient had been fasted overnight; no premedication was given. Pulmonary artery, pulmonary capillary wedge and right heart pressures were measured with a 7 Fr Swan-Ganz catheter introduced into the right femoral vein. Blood pressures were recorded with an automated arm cuff system. After an initial stabilization period of 20 to 30 minutes, the resting hemodynamic measurements were obtained. Thermodilution cardiac output measurements were averaged from five recordings after discarding the highest and lowest values. All blood tests were performed in the Clinical Pathology Laboratory at the Southern Arizona Veterans Administration Health Care System.

[4] = Heart failure patients: serum thyroid function tests; type: in vivo, human; conditions: for Thyrotropin: baseline 2.47 ± 0.6; for FreeT4: baseline 1.19 ± 0.1; for ReverseT3: baseline 197 ± 27
Method: as §1, §2, §3, §4

[5] = post-infarction models, alone or with an angiotensin I-converting enzyme inhibitor; cited from earlier work
[6] = normal primates; cited from earlier work
[7] = normal volunteers, after 2 weeks (1.875 mg/kg/day)
[8] = normal volunteers, after 4 weeks (3.75 mg/kg/day)
[9] = serum, after 2 weeks (1.875 mg/kg daily)
[10] = serum, after 4 weeks (3.75 mg/kg daily)

## O=C(O)CCc1cc(I)c(Oc2ccc(O)cc2)c(I)c1 [DITPA, 3,5-Diiodothyropropionic acid]
[1]; normal volunteers
  echocardiographic parameters: not changed significantly
[1]; after 2 weeks (1.875 mg/kg/day)
  Weight: 83.5 ± 2.6 kg
[1]; after 4 weeks (last 2 weeks 3.75 mg/kg/day)
  Weight: 83.6 ± 2.6 kg
[1]; normal volunteers, 1.875 then 3.75 mg/kg, four weeks
  adverse effects: no adverse effects were noted
[1]; [7]
  Heart Rate: 58.1 ± 3.2 beats/min
  Diastolic Blood Pressure: 76.1 ± 2.9 mm Hg
  Systolic Blood Pressure: 122.0 ± 5.4 mm Hg
[1]; [8]
  Heart Rate: 64.3 ± 3.4 beats/min
  Diastolic Blood Pressure: 71.6 ± 3.8 mm Hg
  Systolic Blood Pressure: 116.3 ± 6.1 mm Hg
[1]; normal volunteers, at either dose
  changes in blood pressure and pulse rate: no significant changes
[1]; normal volunteers, both doses
  tolerability: well tolerated
[2]; normal volunteers n=7, after 2 weeks (1.875 mg/kg/day)
  Thyrotropin: 0.69 ± .38 mu/L
[2]; normal volunteers n=7, after 4 weeks (3.75 mg/kg/day)
  Thyrotropin: 0.44 ± .29 mu/L
[2]; [7]
  Free T4: 0.95 ± .07 ng/dL
  Total T4: 5.76 ± .39 µg/dL
  rT3: 47.41 ± 7.11 ng/dL
[2]; [8]
  Free T4: 1.05 ± .06 ng/dL
  Total T4: 5.89 ± .44 µg/dL
  rT3: 69.56 ± 9.93 ng/dL
[2]; normal volunteers, after two additional weeks at 3.75 mg/kg, normal range 0.48 to 4.0 μU/ml
  average values for thyrotropin: 0.44±0.29 μU/ml
[3]; after 4 weeks, baseline 2.10 ± 0.14, P 0.04 vs placebo
  Cardiac Index: 2.54 ± 0.16 liters/min/m^2
[3]; after 4 weeks, baseline 96.2 ± 6.7
  Mean Arterial Pressure: 92.0 ± 5.7 mm Hg
[3]; after 4 weeks, baseline 3,465 ± 319, P 0.02 vs placebo
  Systemic Vascular Resistance: 2,644 ± 257 dynes x sec x cm^−5
[3]; heart failure patients n=9, right heart catheterization, after 4 weeks of treatment, baseline 84.8 ± 4.9
  Heart Rate: 89.6 ± 5.3
[3]; right heart catheterization, after 4 weeks, baseline 8.1 ± 1.7
  Right atrial pressure: 10.5 ± 1.8 mm Hg
[3]; right heart catheterization, after 4 weeks, baseline 24.0 ± 3.9
  Pulmonary artery pressures, Wedge: 21.8 ± 2.75 mm Hg
[3]; right heart catheterization, after 4 weeks, baseline 25.1 ± 4.1
  Pulmonary artery pressures, Diastolic: 25.4 ± 2.5 mm Hg
[3]; right heart catheterization, after 4 weeks, baseline 30.1 ± 5.0
  Pulmonary artery pressures, Mean: 33.4 ± 3.2 mm Hg
[3]; right heart catheterization, after 4 weeks, baseline 45.0 ± 6.2
  Pulmonary artery pressures, Systolic: 49.1 ± 5.3 mm Hg
[3]; thermodilution, after 4 weeks, baseline 4.50 ± 0.36, P 0.07 vs placebo
  Cardiac Output: 5.30 ± 0.36 L/min
[4]; heart failure patients n=9, serum, after 2 weeks (1.875 mg/kg daily)
  Thyrotropin: 0.04 ± 01^++ mU/L
[4]; [9]
  FreeT4: 1.17 ± 0.1^ ng/dL
  ReverseT3: 477 ± 83^++ ng/dL
[4]; [10]
  FreeT4: 1.17 ± 0.15 ng/dL
  Thyrotropin: 0.018 ± 0.0004 mU/L
  ReverseT3: 559 ± 108 ng/dL
[5]
  left ventricular (LV) performance: improve left ventricular (LV) performance
[6]
  in vivo force-frequency and relaxation-frequency relationships: enhances the in vivo force-frequency and relaxation-frequency relationships
